# pIC50: −log10 of the molar value. Read-outs that look alike come from different tables or passages of the source.
# Assays:
# [1] = system: ERK phosphorylation in KYSE-520 cells; assay: Phospho-ERK cellular assay; assay type: cell-based; conditions: Homo sapiens, read-out: PERK IC50
# Outline: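 TR-FRET read-out of ERK1/2 Thr202/Tyr204 phosphorylation was taken after overnight antibody incubation at room temperature. Before that, KYSE-520 cells were treated 2 h at 37 °C with compound dilutions and lysed 30 min. Percent inhibition relative to vehicle and cell-free wells was fitted four-parametrically to give IC50.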
# [2] = target: SHP-2 enzyme (Met1-Leu525) (Homo sapiens (Human), UniProt Q06124); assay: SHP2 inhibition enzymatic assay; assay type: biochemical; conditions: 0.5 nM SHP-2 activated by 500 nM IRS1 peptide, 75 μM DiFMUP substrate; read-out: SHP2wt-IC50
# Outline: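 SHP-2 (Met1-Leu525), 0.5 nM, activated with 500 nM IRS1 bis-phosphopeptide, preincubated 30 min with compounds in HEPES pH 7.2 buffer with 5 mM DTT. 75 μM DiFMUP added for 30 min at room temperature, stopped with bpV; fluorescence read. IC50 from four-parameter logistic fit of % inhibition.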
# [3] = KYSE-520, 2 h, KYSE-520 cells, 2 h at 37° C., phospho-ERK1/2 (Thr202/Tyr204) TR-FRET
# Chain of SHP-2 enzyme (Met1-Leu525) (Q06124 1-525): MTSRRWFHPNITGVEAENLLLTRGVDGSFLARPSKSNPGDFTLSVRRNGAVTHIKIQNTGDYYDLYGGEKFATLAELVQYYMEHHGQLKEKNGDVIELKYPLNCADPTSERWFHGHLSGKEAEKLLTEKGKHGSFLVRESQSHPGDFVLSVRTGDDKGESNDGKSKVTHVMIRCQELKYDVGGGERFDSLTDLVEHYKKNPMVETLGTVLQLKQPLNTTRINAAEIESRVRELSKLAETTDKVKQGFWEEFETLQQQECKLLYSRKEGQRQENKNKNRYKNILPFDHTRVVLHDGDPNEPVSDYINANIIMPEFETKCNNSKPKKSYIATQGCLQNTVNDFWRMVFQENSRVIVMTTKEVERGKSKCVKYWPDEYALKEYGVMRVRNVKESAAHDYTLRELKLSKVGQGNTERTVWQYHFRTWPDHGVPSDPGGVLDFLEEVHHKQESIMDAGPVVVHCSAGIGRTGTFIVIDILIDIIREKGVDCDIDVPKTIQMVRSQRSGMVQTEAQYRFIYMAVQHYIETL
Structure (SMILES),"pIC50 [1, 3]",pIC50 [2],"pIC50 ([1]; KYSE-520, 2 h)","pIC50 ([1]; KYSE-520 cells, 2 h at 37° C., phospho-ERK1/2 (Thr202/Tyr204) TR-FRET)"
"Cn1cc2c(Cl)c(-c3n[nH]c4nc(N5CCC6C(C5)C6(CN)c5ccccc5)cnc34)ccc2n1 (stereo not shown) [Example 81, (3-(3-(4-chloro-2-methyl-2H-indazol-5-yl)-1H-pyrazolo[3,4-b]pyrazin-6-yl)-7-phenyl-3-azabicyclo[4.1.0]heptan-7-yl)methanamine]",> 6.00,> 6.30,–,–
"NCC1(c2ccccn2)C2CCN(c3cnc4c(-c5cccc(Cl)c5Cl)n[nH]c4n3)CC21 (stereo not shown) [Example 82, (3-(3-(2,3-dichlorophenyl)-1H-pyrazolo[3,4-b]pyrazin-6-yl)-7-(pyridin-2-yl)-3-azabicyclo [4.1.0]heptan-7-yl)methanamine]",> 6.00,> 6.30,–,–
"NCC1(c2ncccn2)C2CCN(c3cnc4c(-c5cccc(Cl)c5Cl)n[nH]c4n3)CC21 (stereo not shown) [Example 83, (3-(3-(2,3-dichlorophenyl)-1H-pyrazolo[3,4-b]pyrazin-6-yl)-7-(pyrimidin-2-yl)-3-azabicyclo [4.1.0]heptan-7-yl)methanamine]",> 6.00,> 6.30,–,–
"NCC1(c2ccsc2)C2CCN(c3cnc4c(-c5cccc(Cl)c5Cl)n[nH]c4n3)CC21 (stereo not shown) [Example 94, (3-(3-(2,3-dichlorophenyl)-1H-pyrazolo[3,4-b]pyrazin-6-yl)-7-(thiophen-3-yl)-3-azabicyclo [4.1.0]heptan-7-yl)methanamine]",> 6.00,> 6.30,–,–
"NCC1(c2ccsc2)C2CCN(c3cnc4c(-c5ccnc(C(F)(F)F)c5)n[nH]c4n3)CC21 (stereo not shown) [Example 95, (7-(thiophen-3-yl)-3-(3-(2-(trifluoromethyl)pyridin-4-yl)-1H-pyrazolo[3,4-b]pyrazin-6-yl)-3-azabicyclo[4.1.0]heptan-7-yl)methanamine]",5.30 to 6.00,> 6.30,–,–
"NCC1(c2ccsc2)C2CCN(c3cnc4c(-c5cccnc5C(F)(F)F)n[nH]c4n3)CC21 (stereo not shown) [Example 96, (7-(thiophen-3-yl)-3-(3-(2-(trifluoromethyl)pyridin-3-yl)-1H-pyrazolo[3,4-b]pyrazin-6-yl)-3-azabicyclo[4.1.0]heptan-7-yl)methanamine]",> 6.00,> 6.30,–,–
"Cn1ccc(C2(CN)C3CCN(c4cnc5c(-c6cccc(Cl)c6Cl)n[nH]c5n4)CC32)n1 (stereo not shown) [Example 98, (3-(3-(2,3-dichlorophenyl)-1H-pyrazolo[3,4-b]pyrazin-6-yl)-7-(1-methyl-1H-pyrazol-3-yl)-3-azabicyclo[4.1.0]heptan-7-yl)methanamine]",> 6.00,> 6.30,–,–
"NCC1(c2ccon2)C2CCN(c3cnc4c(-c5cccc(Cl)c5Cl)n[nH]c4n3)CC21 (stereo not shown) [Example 99, (3-(3-(2,3-dichlorophenyl)-1H-pyrazolo[3,4-b]pyrazin-6-yl)-7-(isoxazol-3-yl)-3-azabicyclo[4.1.0]heptan-7-yl)methanamine]",> 6.00,> 6.30,–,–
"NCC1C2CCN(c3cnc4c(-c5cccc(Cl)c5Cl)n[nH]c4n3)CC12 (stereo not shown) [Example 100, (3-(3-(2,3-dichlorophenyl)-1H-pyrazolo[3,4-b]pyrazin-6-yl)-3-azabicyclo[4.1.0]heptan-7-yl)methanamine]",> 6.00,> 6.30,–,–
"Cc1csc(C2(CN)C3CCN(c4nc5[nH]nc(-c6cccc7ncccc67)c5nc4CO)CC32)n1 (stereo not shown) [Example 101, (6-(7-(aminomethyl)-7-(4-methylthiazol-2-yl)-3-azabicyclo[4.1.0]heptan-3-yl)-3-(quinolin-5-yl)-1H-pyrazolo[3,4-b]pyrazin-5-yl)methanol]",> 6.00,> 6.30,–,–
"Cc1csc(C2(CN)C3CCN(c4cnc5c(-c6ccc(OS(=O)(=O)F)c7ccccc67)n[nH]c5n4)CC32)n1 (stereo not shown) [Example 103, 4-(6-(7-(aminomethyl)-7-(4-methylthiazol-2-yl)-3-azabicyclo[4.1.0]heptan-3-yl)-1H-pyrazolo[3,4-b]pyrazin-3-yl)naphthalen-1-yl sulfurofluoridate]",–,> 6.30,> 6.00,–
"NC[C@]1(c2ccccc2)[C@@H]2CN(c3cnc(Sc4cccnc4C(F)(F)F)c(N)n3)C[C@@H]21 [Example 104, 6-((1R,5S,6s)-6-(aminomethyl)-6-phenyl-3-azabicyclo[3.1.0]hexan-3-yl)-3-((2-(trifluoromethyl)pyridin-3-yl)thio)pyrazin-2-amine]",–,> 6.30,–,< 5.30
"NC[C@]1(c2ccccc2F)[C@@H]2CCN(c3cnc4c(-c5ccnc(N)c5Cl)n[nH]c4n3)C[C@@H]21 [Example 105, 4-(6-((1S,6R,7R)-7-(aminomethyl)-7-(2-fluorophenyl)-3-azabicyclo[4.1.0]heptan-3-yl)-1H-pyrazolo[3,4-b]pyrazin-3-yl)-3-chloropyridin-2-amine]",> 6.00,> 6.30,–,–
"Cc1c(-c2n[nH]c3nc(N4CC[C@@H]5[C@H](C4)[C@@]5(CN)c4c(F)cccc4F)cnc23)ccc2nn(C)cc12 [Example 106, ((1S,6R,7R)-7-(2,6-difluorophenyl)-3-(3-(2,4-dimethyl-2H-indazol-5-yl)-1H-pyrazolo[3,4-b]pyrazin-6-yl)-3-azabicyclo[4.1.0]heptan-7-yl)methanamine]",> 6.00,> 6.30,–,–

# More lines, main results first:
"pIC50 [1, 3]",pIC50 [2],Structure (SMILES),"pIC50 ([1]; KYSE-520, 2 h)","pIC50 ([1]; KYSE-520 cells, 2 h at 37° C., phospho-ERK1/2 (Thr202/Tyr204) TR-FRET)"
> 6.00,> 6.30,"Cc1csc(C2(CN)C3CCN(c4cnc5c(-c6ccccc6Cl)n[nH]c5n4)CC32)n1 (stereo not shown) [Example 84, (3-(3-(2-chlorophenyl)-1H-pyrazolo[3,4-b]pyrazin-6-yl)-7-(4-methylthiazol-2-yl)-3-azabicyclo[4.1.0]heptan-7-yl)methanamine]",–,–
> 6.00,> 6.30,"Cc1csc(C2(CN)C3CCN(c4cnc5c(-c6cccc(Cl)c6)n[nH]c5n4)CC32)n1 (stereo not shown) [Example 85, (3-(3-(3-chlorophenyl)-1H-pyrazolo[3,4-b]pyrazin-6-yl)-7-(4-methylthiazol-2-yl)-3-azabicyclo[4.1.0]heptan-7-yl)methanamine]",–,–
> 6.00,> 6.30,"Cc1csc(C2(CN)C3CCN(c4cnc5c(-c6cccc(F)c6F)n[nH]c5n4)CC32)n1 (stereo not shown) [Example 86, (3-(3-(2,3-difluorophenyl)-1H-pyrazolo[3,4-b]pyrazin-6-yl)-7-(4-methylthiazol-2-yl)-3-azabicyclo[4.1.0]heptan-7-yl)methanamine]",–,–
> 6.00,> 6.30,"COc1cccc(-c2n[nH]c3nc(N4CCC5C(C4)C5(CN)c4nc(C)cs4)cnc23)c1Cl (stereo not shown) [Example 87, (3-(3-(2-chloro-3-methoxyphenyl)-1H-pyrazolo[3,4-b]pyrazin-6-yl)-7-(4-methylthiazol-2-yl)-3-azabicyclo[4.1.0]heptan-7-yl)methanamine]",–,–
> 6.00,> 6.30,"Cc1csc(C2(CN)C3CCN(c4cnc5c(-c6cccc7ncccc67)n[nH]c5n4)CC32)n1 (stereo not shown) [Example 88, (7-(4-methylthiazol-2-yl)-3-(3-(quinolin-5-yl)-1H-pyrazolo[3,4-b]pyrazin-6-yl)-3-azabicyclo[4.1.0]heptan-7-yl)methanamine]",–,–
> 6.00,> 6.30,"Cc1csc(C2(CN)C3CCN(c4cnc5c(-c6cccc7ccccc67)n[nH]c5n4)CC32)n1 (stereo not shown) [Example 89, (7-(4-methylthiazol-2-yl)-3-(3-(naphthalen-1-yl)-1H-pyrazolo[3,4-b]pyrazin-6-yl)-3-azabicyclo[4.1.0]heptan-7-yl)methanamine]",–,–
> 6.00,> 6.30,"Cc1csc(C2(CN)C3CCN(c4cnc5c(-c6cccnc6C(F)(F)F)n[nH]c5n4)CC32)n1 (stereo not shown) [Example 90, (7-(4-methylthiazol-2-yl)-3-(3-(2-(trifluoromethyl)pyridin-3-yl)-1H-pyrazolo[3,4-b]pyrazin-6-yl)-3-azabicyclo[4.1.0]heptan-7-yl)methanamine]",–,–
> 6.00,> 6.30,"Cc1csc(C2(CN)C3CCN(c4cnc5c(-c6cccc7c6OCO7)n[nH]c5n4)CC32)n1 (stereo not shown) [Example 91, (3-(3-(Benzo[d][1,3]dioxol-4-yl)-1H-pyrazolo[3,4-b]pyrazin-6-yl)-7-(4-methylthiazol-2-yl)-3-azabicyclo[4.1.0]heptan-7-yl)methanamine]",–,–
> 6.00,> 6.30,"Cc1csc(C2(CN)C3CCN(c4cnc5c(-c6ccc(F)c7ncccc67)n[nH]c5n4)CC32)n1 (stereo not shown) [Example 92, (3-(3-(8-fluoroquinolin-5-yl)-1H-pyrazolo[3,4-b]pyrazin-6-yl)-7-(4-methylthiazol-2-yl)-3-azabicyclo[4.1.0]heptan-7-yl)methanamine]",–,–
> 6.00,> 6.30,"Cc1csc(C2(CN)C3CCN(c4cnc5c(Sc6ccnc(N)c6Cl)n[nH]c5n4)CC32)n1 (stereo not shown) [Example 93, 4-((6-(7-(aminomethyl)-7-(4-methylthiazol-2-yl)-3-azabicyclo[4.1.0]heptan-3-yl)-1H-pyrazolo[3,4-b]pyrazin-3-yl)thio)-3-chloropyridin-2-amine]",–,–
> 6.00,> 6.30,"Cn1nccc1C1(CN)C2CCN(c3cnc4c(-c5cccc(Cl)c5Cl)n[nH]c4n3)CC21 (stereo not shown) [Example 97, (3-(3-(2,3-dichlorophenyl)-1H-pyrazolo[3,4-b]pyrazin-6-yl)-7-(1-methyl-1H-pyrazol-5-yl)-3-azabicyclo[4.1.0]heptan-7-yl)methanamine]",–,–
> 6.00,> 6.30,"Cc1csc(C2(CN)C3CCN(c4nc5[nH]nc(-c6cccc(Cl)c6Cl)c5nc4CO)CC32)n1 (stereo not shown) [Example 102, (6-(7-(aminomethyl)-7-(4-methylthiazol-2-yl)-3-azabicyclo[4.1.0]heptan-3-yl)-3-(2,3-dichlorophenyl)-1H-pyrazolo[3,4-b]pyrazin-5-yl)methanol]",–,–

# — US20240109900A1, “AZABICYCLIC SHP2 INHIBITORS” (IRBM S.P.A., priority 2021, published 2024)
